Test results reported in paper PMC10606064, “2-Aminothiazole-Flavonoid Hybrid Derivatives Binding to Tau Protein and Responsible for Antitumor Activity in Glioblastoma” (International Journal of Molecular Sciences, 2023).

Assays:
[1] = system: LC3 proteins in U87 shCTRL and shTau cells; assay: LC3-II/LC3-I ratio by Western blot (autophagosomes); assay type: cell-based, human; conditions: both cell types, 5 µM, 48 h
Description: Cells were lysed with freshly made RIPA buffer derivative (4.3 mL of TBS 1×, 50 µL of SDS 10%, 10 µL of EDTA 0.5 M, 500 µL of Triton 10×, and 1% inhibitors of protease and phosphatase). After 30 min of lysis at 4 °C under agitation, lysates were centrifuged at 10,000× g for 10 min at 4 °C. Equivalent amounts of proteins from the supernatant fraction were subjected to Western blot analysis. Protein samples were loaded (40 μg/lane) and separated on 10 or 12% sodium dodecyl sulfate-polyacrylamide gels. The separated proteins were transferred onto nitrocellulose blotting membrane using the Bio-Rad transfer system. […] The band intensity was quantified using the ImageJ v1.50g software. […] The band intensity was quantified using the NIH ImageJ v1.50g software.
Figure 4 Compounds (2) and (9) affect autophagy function machinery and alter mitochondrial morphology. […] (A) Quantities of autophagy LC3 proteins were analyzed by Western blot of U87 shCTRL and U87 shTau cells: for each sample, the ratio of the amount of mature (LC3-II) to immature (LC3-I) isoform was calculated as relative fold of the reference value (with or without the compound); significant statistical differences were calculated using one-way ANOVA with a post hoc Tukey–Kramer HSD test with (*) p < 0.01 from three independent experiments; ns: non-significant. […]

[2] = system: U87 shCTRL and U87 shTau cells; assay: Acridine orange spectrofluorometry (late autophagy); assay type: cell-based, human; conditions: both cell types, 5 µM, 48 h
Description: Briefly, 2.10^5 cells in exponential growth were seeded in 6-well plates. After 24 h, they were treated with 5 µM of compounds for 48 h. Trypsinized cells were harvested, counted, and then centrifuged (1200 rpm, 5 min, at RT). The cells pellet was resuspended in 2 mL of acridine orange diluted in complete culture media to a final concentration of 1 µg/mL and incubated for 15 min in the dark. Cells were then collected by centrifugation (1200 rpm, 5 min, at RT). The cells pellet was resuspended in PBS to a suspension concentration of 2.10^5 cells/mL. The suspension was transferred to a quartz cuvette, and then fluorescence emission of acridine orange was measured with a FluoroMax-3 spectrofluorometer (Horiba Jobin Yvon, Palaisseau, France) (excitation at 490 nm).

U87 shTau cells = assay: MTT cell viability assay, U87 shTau (Tau-depleted); assay type: cell-based; conditions: Homo sapiens, 72 h, mean ± SEM, read-out: IC50 (metabolic activity)
Description: All cell lines were purchased from ATCC, Gaithersburg, MD, USA. Cells from human glioblastoma (clones U87 wt, HTB-14; U118, HTB-15; U251, HTB-12; U138, HTB-16), neuroblastoma (clone SK-N-SH, HTB-11), and colorectal adenocarcinoma (clone Caco-2, HTB-37) were routinely grown at 37 °C in a humidified atmosphere containing 5% CO2. Cells were maintained by regular passages in complete media supplemented with 10% FBS, 2mM of L-glutamine, 100 U/mL of penicillin, and 50 U/mL of streptomycin (Invitrogen, Paris, France). For U87 wt, U251, U138, and SK-N-SH cells, the medium consisted of EMEM (Lonza, Levallois Perret, France). U118 and Caco-2 lines were maintained in DMEM. The U87 wt-derived lines, U87 shCTRL, and U87 shTau2 cells were continuously maintained in complete EMEM medium supplemented with 0.4 µg/mL of puromycin. The shRNA sequences and the protocol of clone selection and Tau downregulation were previously described in [20]. For Tau expression rescue, the U87 shCTRL and U87 shTau cells were seeded two days prior to experiments at 4.10^5 cells per 60 mm dish in 6 mL of complete medium. Cells were transfected using LipofectAmine 2000 according to Invitrogen instructions and 8 µg EGFP-free plasmid constructs (for U87 shCTRL) and EGFP-hTau40 plasmid constructs (for U87 shTau) were used in total. One day prior to experiments, all cells were plated in a 96-well microtiter plate to prepare for viability assays. Cells were free from mycoplasma as determined by mycoalert tests (Lonza).
Cells harvested from sub-confluent monolayers were seeded at 15,000 cells per mL in a 96-well microtiter plate (Cambridge Technology, Labège, France) and cultured for 24 h under standard conditions. Standard medium was then replaced by fresh medium containing no drugs or compounds at different concentrations. The surviving cells were quantified after 72 h by the MTT assay, according to the manufacturer’s instructions. Briefly, 20 µL of 3-(4,5-diMethylThiazol-2-yl)-2,5diphenyl Tetrazolium bromide (MTT) solution at 5 mg.mL^−1 was added to cells for 3 h at 37 °C. The supernatant was discarded and replaced by 100 µL of dimethyl sulfoxide to dissolve formazan crystals. The absorbance was then read at 600 nm by spectrophotometry. For all concentrations of a given compound, cell viability was expressed as the percentage of the ratio between the mean absorbance of treated cells and the mean absorbance of untreated cells. Three independent experiments were performed, and the data were expressed as percentage of survival (using the untreated cells as 100%) and subjected to statistical analysis (n = 3). The IC50 was calculated using the Chou and Talalay method.

Row | SMILES | ratio of mature LC3-II to immature LC3-I [1] | acridine orange fluorescence emission [2] | IC50 (U87 shTau cells)
1 | Nc1nc2ccc3oc(-c4cccc(Oc5ccccc5)c4)cc(=O)c3c2s1 [Compound 2, 2-amino-7-(3-phenoxyphenyl)-9H-chromeno [6,5-d]thiazol-9-one] | no statistically significant changes in ratios | shift to blue emission | 4.7 ± 0.3 µM
2 | Nc1nc2ccc3oc(C(=O)O)cc(=O)c3c2s1 [Compound 5] | no statistically significant changes in ratios | shift to blue emission | > 100 µM
